Turning to `O=C(CCC(CCC(=O)OCc1ccccc1)(CCC(=O)OCc1ccccc1)[N+](=O)[O-])OCc1ccccc1`, the melting point was 95 to 96 °C.

Compound `CC(=O)NC[C@H]1CN(c2ccc(N3CCC4(CC3)CO4)c(F)c2)C(=O)O1` registered a melting point of 152 to 154 °C.

In turn, `CCCC(=O)c1ccc(N2CCOCC2)cc1` came in with a melting point of 64.5 to 65.5 °C.

With `CN(C(=O)OC(C)(C)C)c1cc(Oc2ccc(Oc3ccccc3)cc2)ccc1N`, the melting point was 105 to 106 °C.

In the case of `CCc1cc(=O)n(-c2cc3[nH]c(=O)sc3cc2F)c(=O)n1C`, the melting point is over 250 °C.

For `CSCCC(=O)N(C)c1sc(-c2cncc(F)c2)nc1C#N`, the melting point fell in the range of 97 to 98 °C.

In the case of `CCOC(=O)c1ccc2nccc(O)c2c1`, the melting point fell in the range of 233 to 234 °C.

Turning to `CCCCc1cc2cc(O)c(Cl)c(Cl)c2s1`, the melting point stood at 35 °C.

In turn, `Cc1c(Cc2ccc(C(C)C)cc2)c2c(c(C)c1NC(=O)CC(C)(C)C)C(N(C)C)C(C)(C)O2` (centres undefined) returned a melting point of 138 to 139 °C.

Turning to `CC(=O)C(C#N)c1ccc(F)c(Cl)c1` (centres undefined), the melting point fell in the range of 133 to 134 °C.

On to `COc1cccc(C(=O)c2ccc(OC)c(C(=O)O)c2)c1`, for which the melting point was 132 °C.

For `COc1ccc2nc(C(F)(F)F)c(C(=O)Nc3nccs3)c(O)c2c1`, the melting point is over 270 °C.

Compound `O=C(NO)c1ccc2c(c1)CN(C(=O)c1ccc3ccccc3n1)C2` had a melting point of 162 to 166 °C.

As to `COC(=O)CCC(=O)c1cc2c(=O)c3ccccc3ccc2s1`, the melting point lay in the range of 144 to 145 °C.

Turning to `O=C(NCc1ccccn1)Nc1cc(N2C(=O)CCc3ccccc32)ccn1`, the melting point was 194 to 195 °C.

`Cc1c(NC(=O)c2ccc(-c3ccc(OC(F)(F)F)cc3)cc2)ccc2cc(CN3CCCC3)cnc12` displayed a melting point of 200 to 202 °C.

In the case of `COc1ccc2cc3c(c(-c4ccc(C(F)(F)F)cc4)c2c1)CNC3=O`, the melting point was 219 to 221 °C.

For the compound `COCCCn1c(C=O)c(Br)c2c3c(c(-c4ccccc4Cl)cc21)C(=O)NC3=O`, the melting point lay in the range of 206 to 207 °C.

Take `CN(C)CCOc1nccc(-c2c(-c3ccc(F)cc3)ncn2C2CCC(=O)CC2)n1`: the melting point is 84 to 86 °C.

Compound `O=C(Nc1cc(Cl)ccc1O)Nc1cc(C(F)(F)F)ccc1Cl` returned a melting point of 172 to 173 °C.

For the compound `CCCCc1nc(SC)c(C(=O)OCC)n1Cc1ccccc1-c1cccc(S(=O)(=O)NC#N)c1`, the melting point came out at 108 °C.

The compound `CC(C)(C)c1cc(CCC(=O)O)n(Cc2ccc(C(F)(F)F)cc2Cl)n1` displayed a melting point of 128 to 129 °C.

`Cc1c(-c2ccncc2)oc2c1C(=O)CCC2(C)C` displayed a melting point of 86 to 88 °C.

Compound `CNC(=O)N1CCc2[nH]cnc2C1C1CCCCC1` (centres undefined) had a melting point of 250 °C.

In the case of `CCc1c(Cc2[nH]c(C(=O)OCc3ccccc3)c(C)c2CCCO)[nH]c(Cc2[nH]c(C(=O)OCc3ccccc3)c(C)c2CCCO)c1CC`, the melting point was 172 to 173 °C.

`C[C@H](OC(=O)CCC(=O)O[C@@H](C)C(=O)O)C(=O)O` registered a melting point of 59 to 61 °C.

Take `COCCCS(=O)(=O)NC(=O)/C=C/c1cc(OC(C)C)nn1Cc1ccc(C(F)(F)F)cc1Cl`: the melting point was 138 to 139 °C.

As to `COc1ccc(C=CC(=O)c2cccc(OCCCCBr)c2)cc1`, the melting point was in the range of 91 to 92 °C.

Regarding `CCc1c(-c2ccc(OCc3ccccc3)cc2)c2cc(COCCCN(C)C)c3cccc1n32`, the melting point lay in the range of 63 to 65 °C.

As to `Nc1ncnc2cccc(Oc3ccc(F)cc3)c12`, the melting point fell in the range of 188 to 190 °C.

With `CCN(CC)C(=O)COc1ccc(C(=O)CCl)cc1`, the melting point was in the range of 89 to 91 °C.

`CCCCCCCCCCCCOC(=O)CC(O)C(=O)OCCCCCCCCCCCC` (centres undefined): the melting point was in the range of 27 to 30 °C.

Take `CC(=O)C1CCC2C3CCC4=CC(=O)CCC4(C)C3C(Cl)CC12C` (centres undefined): the melting point is 185 to 188 °C.

`COc1ccc(-c2ccc(C(=O)NCCOc3ccc(CC(Oc4ccc(C(C)C)cc4)C(=O)O)cc3)cc2)cc1` (centres undefined) displayed a melting point of 159 to 160 °C.

`CCCOc1cc(CCCOc2c(CC(=O)O)cccc2OC)n(Cc2ccc(F)cc2F)n1` registered a melting point of 77 to 80 °C.

For the compound `CCOC(=O)Cc1ccc(Nc2ncc3c(n2)N(C)C(=O)N(c2c(Cl)cccc2Cl)C3)cc1`, the melting point lay in the range of 211 to 212 °C.

`O=C(OCCN1CCCCCC1)c1ccccc1Nc1ccnc2cc(C(F)(F)F)ccc12` came in with a melting point of 72 to 75 °C.

`CC(=O)N(C(C)=O)c1c(I)c(C(=O)Cl)c(I)c(N(C(C)=O)C(C)=O)c1I` displayed a melting point of 231 to 232 °C.

In turn, `CCN(CC)CCN1C(=O)Nc2ncccc2C1c1ccccc1` (centres undefined) registered a melting point of 160 to 162 °C.

For `CCOC(=O)c1c(CCCCn2cncn2)nc2sc3c(c2c1-c1ccc(OC)c(OC)c1)CCN(C(=O)c1ccc(Cl)cc1)C3`, the melting point fell in the range of 165 to 166 °C.

`CC(=O)Oc1ccc(S(=O)(=O)Cl)cc1N=NC(C(C)=O)C(=O)Nc1ccccc1` (centres undefined): the melting point fell in the range of 225 to 226 °C.

Compound `CCc1nnc(-c2ccc(OC)cc2)n1-c1ccc(OC)c(OC)c1` yielded a melting point of 150 °C.

Compound `CCOC(=O)c1ncn2c1CNC(=O)c1cc(OC)ccc1-2` came in with a melting point of 240 °C.

With `CC1(c2cc(N3C(=O)C4=C(CCCC4)C3=O)c(F)cc2Cl)OCCO1`, the melting point was found to be 147 °C.

As to `CCCCCCCCCCCCN1C(C)(C)CC(O)CC1(C)C`, the melting point was 41 to 42 °C.

`CCOC(=O)c1c(N2CCN(C(=O)c3cccs3)CC2)c2sccc2n(Cc2cccc(F)c2)c1=O` gave a melting point of 95 to 113 °C.

`CC(NC1(C(=O)O)CCCC1)C(=O)N1CCCC1C(=O)O` (centres undefined) gave a melting point of 142 to 145 °C.

Compound `O=C(COc1ccc2ccccc2c1)NCc1ccc(C(=O)O)cc1` gave a melting point of 188 to 189 °C.

For `N#Cc1nn(-c2ccccc2)c(OC(F)F)c1CO`, the melting point is 71 to 72 °C.

For `COC(OC)c1cccc(C=Cc2cccc(-n3cccc3)c2)c1`, the melting point is 108 to 110 °C.

In the case of `N#CC(NC(=O)c1cccn2cc(-c3ccccc3)nc12)c1ccco1` (centres undefined), the melting point was in the range of 197 to 199 °C.

Compound `COc1cc2nc(Cl)nc(Nc3ccc4[nH]ncc4c3)c2cc1OC` returned a melting point of 279 to 284 °C.

Regarding `Cc1c(Cl)ccc(OC(C)C(=O)O)c1Cl` (centres undefined), the melting point turned out to be 150 °C.

On to `COc1cc(NC(=O)CCCCCN2CCN(c3ccc(Cl)c(Cl)c3)CC2)c2nccc(C)c2c1`, for which the melting point lay in the range of 99 to 100 °C.

`C[C@@H]1C(=O)N(CO)Cc2ccccc2[C@@H]1C` (relative stereo): the melting point lay within 91 to 92 °C.

In the case of `Brc1cccc(Oc2ccccc2)n1`, the melting point was 83 to 86 °C.

In the case of `N#Cc1ccc(-c2ccc3c(c2)C2(CCCCC2)C(=O)N3)cc1F`, the melting point fell in the range of 258 to 260 °C.

`COc1nccc(C)c1NC(=O)OC(C)(C)C` gave a melting point of 93 to 95 °C.

`COC(=O)CC(=O)c1cnccn1` showed a melting point of 109 to 110 °C.

For `CCOC(=O)N1CCC(=C2c3ccccc3CCc3cccnc32)CC1`, the melting point fell in the range of 106 to 107 °C.

The compound `Nc1cc(N2CCNCC2)ccc1S(=O)(=O)c1ccc(F)cc1` gave a melting point of 144 to 146 °C.

Take `OC(CCl)COc1ccc2c(c1)OCC(c1ccccc1)C2` (centres undefined): the melting point is 74 to 76 °C.

Turning to `CC(C)(CNC(=O)c1ccccc1-c1ccccc1C(=O)O)SN=O`, the melting point lay within 121 to 123 °C.

In turn, `O=C(O)Cn1nc(Br)nc1Br` returned a melting point of 147 to 152 °C.

With `C[C@]1(CN2CCC(Nc3ccc(OC(F)(F)F)cc3)CC2)Cn2cc([N+](=O)[O-])nc2O1`, the melting point is 108 to 109 °C.

For `O=C(NC/C=C\COc1cc(CN2CCCC2)ccn1)c1ccc[nH]1`, the melting point was 124 to 127 °C.

Take `COc1ccc(N(N)Cc2ccc(Cl)cc2)cc1`: the melting point came to 55 °C.

Take `Cc1cccc2c1CCN(C1CN3CCC1CC3)C2=O` (racemic): the melting point is over 270 °C.

`CC(=O)Nc1nc(CS(=O)(=O)c2ccc(N)cc2)cs1` gave a melting point of 135 to 137 °C.

Consider `COC(=O)c1cc2c3ccccc3n(S(=O)(=O)c3ccccc3)c2s1`, for which the melting point was in the range of 195 to 197 °C.

Turning to `CC(=O)OCC1OC(n2cc(Cc3ccc(Br)s3)c3c(Cl)cccc32)C(OC(C)=O)C(OC(C)=O)C1OC(C)=O` (centres undefined), the melting point was in the range of 185 to 187 °C.

For `O=C(c1ccc(O)cc1)c1ccc(OCCBr)cc1`, the melting point is 136 to 138 °C.

For `COc1cccc(C)c1N(C(C)=O)C(C)=O`, the melting point lay within 116 to 119 °C.

`CCCCOC(=O)c1nn(-c2ccc(I)cc2)c(C)cc1=O` displayed a melting point of 134 to 137 °C.

`CC(C)(C)OC(=O)CN1CC(c2ccccc2)CCC(N=[N+]=[N-])C1=O` (centres undefined): the melting point is 119 to 121 °C.

In the case of `CC(C#CCOc1ccccc1)N(O)C(N)=O` (centres undefined), the melting point lay in the range of 75 to 77 °C.

Compound `CC(=O)NC[C@H]1CN(c2ccc(N3CCN(c4ccc([N+](=O)[O-])o4)CC3)c(F)c2)C(=O)O1` registered a melting point of 191 to 204 °C.

`CC(C)(C)OC(=O)N1CCCC(CO)(c2ccccc2)C1` (centres undefined) showed a melting point of 101 to 104 °C.

`CCCC(=O)OCC1OC(n2cnc3c(OC)nc(N)nc32)C(O)C1O` (centres undefined) registered a melting point of 105 °C.

Take `S=c1[nH]c(=S)c2ccccc2[nH]1`: the melting point lay in the range of 234 to 237 °C.

In turn, `CC(=O)NN1CCC(c2ccc(-c3cccc(N)n3)cc2)CC1` registered a melting point of 224 to 227 °C.

`CC(=O)SCC12CCC3(CC1=CCC1C2CCC2(C)C(C(C)=O)CCC12)OCCO3` (centres undefined) yielded a melting point of 151 to 153 °C.

Compound `O=C(N1CCC(c2nc(-c3c(Cl)cccc3Cl)no2)CC1)N1CCCc2ccccc21` registered a melting point of 63 to 68 °C.

`O=c1cc2c(nn1-c1ccc(Cl)cc1F)CCCC2` came in with a melting point of 104 to 108 °C.

`COC(=O)c1ccc([C@H]2CCN(Cc3ccccc3)C[C@@H]2O)cc1` (racemic) showed a melting point of 103 to 104 °C.

On to `COc1ccc2nc(Cl)c(C#N)cc2c1`, for which the melting point lay within 201 to 202 °C.

`CC(C)(C)c1cc(C(C)(C)C)n(Cc2ccc(CNc3ccc(CCC(=O)O)c(F)c3)cc2)n1` gave a melting point of 146 to 147 °C.

For `CCCC(=O)Cc1cc(OC)ccc1NC(=O)OC(C)(C)C`, the melting point lay in the range of 77 to 78 °C.

With `Nc1nc(N)c(CCCNc2ccc(C(=O)N[C@@H](CCC(=O)O)C(=O)O)cc2F)c(=O)[nH]1`, the melting point was over 175 °C.

By melting point is commonly meant the temperature of the solid-liquid transition.

The record behind these values is a melting point compilation (Tetko et al.; mined from patent text by program, amines drawn as free bases though some values may be those of a salt).
